Data on five compounds can be found in paper PMC6364417, “Kinase inhibitor library screening identifies synergistic drug combinations effective in sensitive and resistant melanoma cells” (Journal of Experimental & Clinical Cancer Research : CR, 2019).

Series [1] concerns NHEM (normal human epidermal melanocytes). Description: Dose-response curves and IC50 in non-cancer cells, cell viability, 72 h. Particulars: melanocytes (NHEM). As to the method: (§1) The IC50 values (nM) were calculated as indicated in Methods.
In series [2] the test system is NHDF (normal human dermal fibroblasts). The series is described as above. To be noted: fibroblasts (NHDF). As to the method:
as §1

In series [3] the test system is A375 cells (parental). In words: Dose-response curves and IC50, PrestoBlue cell viability, 72 h. In kind it is cell-based, human. Particulars: read-out: Half-maximal inhibitory concentration value (IC50), Mean.
The subject of series [4] is A375-XP cells (Vemurafenib-resistant). The description is as above. It counts as cell-based, human. Particulars: n.e. = did not suppress growth below 50% in the tested concentration range; for pIC50: read-out: Half-maximal inhibitory concentration value (IC50), Mean.
Series [5] relates to A375-GP cells (Dabrafenib-resistant). Described as above. In kind it is cell-based, human. Particulars: n.e. = did not suppress growth below 50% in the tested concentration range; for pIC50: read-out: Half-maximal inhibitory concentration value (IC50), Mean.
Series [6] has as its system IGR37 cells (parental). Described as above. To be noted: read-out: Half-maximal inhibitory concentration (IC50).
For series [7], the system named is IGR37-XP cells (Vemurafenib-resistant). Described as above. To be noted: read-out: Half-maximal inhibitory concentration (IC50).
The subject of series [8] is 501Mel-XP cells (Vemurafenib-resistant). Described as above. Particulars: read-out: Half-maximal inhibitory concentration (IC50).
The next series has as its system A375 cells. In words: Synergy determination with the Chou-Talalay method (CompuSyn), cell viability 72 h. It counts as cell-based, human. To be noted: 72 h cell viability, Chou-Talalay / Synergyfinder. As to the method: The Chou-Talalay method to determine possible synergistic effects of selected kinase inhibitor combinations was used as described in [19]. […] Cells were treated with either single inhibitors or combinations thereof at indicated amounts in technical triplicates. The amounts were pre-determined from each inhibitor’s IC50 value and inhibitors were assayed in a defined dilution series and at constant ratio when combined. […] Combination Index (CI) values showing either synergy (< 1) or antagonism (> 1) were calculated with the CompuSyn software (ComboSyn, Inc).

Series [9] relates to 501Mel cells (parental). In words: Dose-response curves and IC50, PrestoBlue cell viability, 72 h. Particulars: read-out: Half-maximal inhibitory concentration (IC50).
The test system of series [10] is IGR37-GP cells (Dabrafenib-resistant). The description is as above. Particulars: read-out: Half-maximal inhibitory concentration (IC50).
The subject of series [11] is 501Mel-GP cells (Dabrafenib-resistant). The series is described as above. To be noted: read-out: Half-maximal inhibitory concentration (IC50).
The test system of series [12] is A375 parental cells expressing iRFP. In words: Long-term inhibitor treatment, iRFP fluorescence proliferation monitoring. In kind it is cell-based, human. As to the method:
A375 parental and BRAFi-resistant cells, virally transduced with the near-infrared fluorescent protein (iRFP) were seeded at a density of 2500 cells/well in a 24-well plate (Greiner) in at least technical triplicates. Inhibitors, single or in combination, were added at the indicated amounts and replenished every 72 h for a duration of 76 days. To assess whether any remaining cells have become resistant to the treatment and would re-emerge, the drugs were removed and the cells underwent “drug holidays” for an additional 21 days. During the long-term treatment, cell proliferation was monitored bi-weekly on a LI-COR Odyssey Infrared Imaging System (LI-COR Biosciences). Fluorescence intensity was quantified with the Image Studio™ Lite software (LI-COR Biosciences).

Series [13] concerns IGR37-XP cells (Vemurafenib-resistant). In words: Kinase inhibitor library screening, PrestoBlue cell viability, 1 or 10 μM, 72 h. To be noted: IGR37 XP.
For series [14], the system named is A375-GP cells (Dabrafenib-resistant). Described as above. Particulars: A375 GP.
Series [15] has as its system IGR37 cells (parental). The description is as above. To be noted: IGR37 Parental.
Series [16] deals with A375 cells (parental). Described as above. Particulars: A375 Parental.
The subject of series [17] is 501Mel-XP cells (Vemurafenib-resistant). The series is described as above. To be noted: 501Mel XP.
Series [18] deals with A375-XP cells (Vemurafenib-resistant). Described as above. To be noted: A375 XP.
The test system of series [19] is 501Mel-GP cells (Dabrafenib-resistant). Described as above. Particulars: 501Mel GP.
Series [20] concerns IGR37-GP cells (Dabrafenib-resistant). The series is described as above. Particulars: IGR37 GP.
For series [21], the system named is 501Mel cells (parental). The description is as above. To be noted: 501Mel Parental. Put shortly:
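Two concentrations of every kinase inhibitor were tested on each melanoma line and its resistant counterparts, and cell survival was quantified by PrestoBlue against untreated wells.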

Where [22] appears, read: Homo sapiens, A-375, n.e. = did not suppress growth below 50% in the tested concentration range.
The mark [23] stands for this setting: n.e. = did not suppress growth below 50% in the tested concentration range.

Each structure is given as a SMILES string. pIC50: −log10 of the molar value. Read-outs that look alike come from different tables or passages of the source.

Consider `CC(C)(C)c1nc(-c2cccc(NS(=O)(=O)c3c(F)cccc3F)c2F)c(-c2ccnc(N)n2)s1` [Dabrafenib], for which the “effect on healthy cells, cell viability (in words)” value in series [1] and in series [2] was “did not have any effect” each time. In addition, in the series with A375 cells (parental) [3] (setting [22]), the pIC50 was 8.72. Moreover, the “Half-maximal inhibitory concentration value (IC50), Mean” value in [4] and in [5] was “n.e” in each case.

For the compound `COc1cc(OC)c(/C=C/S(=O)(=O)Cc2ccc(OC)c(NCC(=O)O)c2)c(OC)c1` [Rigosertib], the pIC50 in the series on IGR37 cells (parental) [6] (Homo sapiens, IGR-37, 72 h) was 6.99; in [7] (Homo sapiens, 72 h) it was 6.92; in series [8] (Homo sapiens, 72 h) it was 7.20; in the series on A375 cells (parental) [3] (setting [22]), 7.19; in the series on 501Mel cells (parental) [9] (Homo sapiens, 72 h), 7.10; in series [10] (Homo sapiens, 72 h), 7.05. Further, the pIC50 in series [4] (Homo sapiens) was 7.23; in series [5] (Homo sapiens), 7.30; in series [11] (Homo sapiens, 72 h), 7.15. In addition, the “synergistic effects with the BRAF inhibitors Vemurafenib and/or Dabrafenib (in words)” value with A375 cells was “did not act synergistically”.

Turning to `O=c1[nH]c2ccc(Cl)cc2c(N[C@@H]2CN3CCC2CC3)c1-c1nc2ccccc2[nH]1` [CHIR-124, reference compound], the “long-term cell growth under drug until day 76 (in words)” value is on record as “not sufficient to prevent cells to grow back” in series [12] (150 nM, even with Dabrafenib (data not shown)) and “killed most of the cells” in series [12] (300 nM single treatment). In addition, the “synergistic effects with the BRAF inhibitors Vemurafenib and/or Dabrafenib (in words)” value in the series on A375 cells was “synergistic effects only with Dabrafenib”. The pIC50 with A375 cells (parental) [3] (setting [23]) was 6.63; in [4], 6.49; in [5], 6.56. Moreover, the “cell viability (kinase inhibitor library screening)” value is 63.5% in [13] (1μΜ, 72 h); 1.6% in series [13] (10μΜ, 72 h); 18.2% in series [14] (1μΜ, 72 h); 1.5% in series [14] (10μΜ, 72 h); 57.6% in the series on IGR37 cells (parental) [15] (1μΜ, 72 h); 1.0% with IGR37 cells (parental) [15] (10μΜ, 72 h). Besides, the “cell viability (kinase inhibitor library screening)” value with A375 cells (parental) [16] (10μΜ, 72 h) is recorded as 2.4%; in the series on A375 cells (parental) [16] (1μΜ, 72 h) it was 23.5%; in [17] (1μΜ, 72 h) it was 26.0%; in series [17] (10μΜ, 72 h), 0.156%; in series [18] (1μΜ, 72 h), 40.8%; in series [18] (10μΜ, 72 h) it was 1.5%. Besides, the “cell viability (kinase inhibitor library screening)” value in series [19] (1μΜ, 72 h) is 40.5%; in [19] (10μΜ, 72 h) it was 0.146%; in series [20] (1μΜ, 72 h) it was 91.0%; in series [20] (10μΜ, 72 h), 2.3%; in the series with 501Mel cells (parental) [21] (1μΜ, 72 h), 47.8%; with 501Mel cells (parental) [21] (10μΜ, 72 h), 0.9%.

Consider `Cc1ccc(C(=O)Nc2ccc(CN3CCN(C)CC3)c(C(F)(F)F)c2)cc1C#Cc1cnc2cccnn12` [Ponatinib], for which the pIC50 is 5.97 in the series with IGR37 cells (parental) [6] (Homo sapiens, IGR-37, 72 h); 5.85 in [7] (Homo sapiens, 72 h); 5.87 in series [8] (Homo sapiens, 72 h); 6.20 in the series on A375 cells (parental) [3] (setting [22]); 5.93 with 501Mel cells (parental) [9] (Homo sapiens, 72 h); 5.87 in [10] (Homo sapiens, 72 h). Moreover, the pIC50 was 6.75 in series [4] (Homo sapiens); 6.65 in series [5] (Homo sapiens); 5.85 in series [11] (Homo sapiens, 72 h). The “synergistic effects with the BRAF inhibitors Vemurafenib and/or Dabrafenib (in words)” value in the series on A375 cells is given as “did not act synergistically”.

`Cc1ccc(C(=O)Nc2cccc(C(F)(F)F)c2)cc1Nc1nc(-c2cccnc2)nc2c1cnn2C` [NVP-BHG712, reference compound]: the pIC50 in the series on IGR37 cells (parental) [6] (IGR37 parental, 72 h cell viability) was 5.24; in series [7] (IGR37-XP (Vemurafenib-resistant), 72 h cell viability), 5.23; in series [8] (501Mel-XP (Vemurafenib-resistant), 72 h cell viability), 5.42; in the series with A375 cells (parental) [3] (setting [23]) it was 5.35; with 501Mel cells (parental) [9] (501Mel parental, 72 h cell viability), 5.35; in series [10] (IGR37-GP (Dabrafenib-resistant), 72 h cell viability) it was 5.15. For the same compound, the pIC50 in series [4] was 5.50; in series [5], 5.72; in [11] (501Mel-GP (Dabrafenib-resistant), 72 h cell viability), 5.31. The “cell viability (kinase inhibitor library screening)” value is listed as 103.3 in series [13] (1μΜ, in %); 17.6 in [13] (10μΜ, in %); 80.6 in series [14] (1μΜ, in %); 37.1 in [14] (10μΜ, in %); 107.5 with IGR37 cells (parental) [15] (1μΜ, in %); 83.5 with IGR37 cells (parental) [15] (10μΜ, in %). Further, the “cell viability (kinase inhibitor library screening)” value in the series with A375 cells (parental) [16] (1μΜ, in %) was 103.3; with A375 cells (parental) [16] (10μΜ, in %) it was 63.1; in [17] (1μΜ, in %), 121.0; in series [17] (10μΜ, in %), 2.2; in [18] (1μΜ, in %), 84.7; in series [18] (10μΜ, in %), 29.1. Further, the “cell viability (kinase inhibitor library screening)” value worked out at 107.1 in [19] (1μΜ, in %); 25.6 in series [19] (10μΜ, in %); 97.4 in series [20] (1μΜ, in %); 51.2 in series [20] (10μΜ, in %); 103.2 in the series with 501Mel cells (parental) [21] (1μΜ, in %); 27.8 in the series on 501Mel cells (parental) [21] (10μΜ, in %).
